Data: ChEMBL document CHEMBL1201862, “PubChem BioAssay data set” (2004)
Activity calls are given as the source filed them.

What was measured:
[1] = A cytotoxicity screen of small molecule inhibitors of the PhoP region in Salmonella typhi identified in the primary screen. [Related pubchem assays: 1850, 1864, 1985 ]; format: functional
[2] = inhibitors of intracellular T. cruzi replication, confirmation, NIH3T3 host cells, beta-gal luminescence (AID 2044); format: functional, cell-based;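 note: intracellular parasites grown in NIH/3T3 mouse fibroblasts as host cells; luminescent beta-galactosidase reporter signal from transgenic T. cruzi replicating inside host cells; inhibitors lower the luminescence signal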
[3] = cytotoxicity toward NIH3T3 fibroblasts, dose response, counter-screen, cell-based, ATP luminescence, mouse fibroblasts (AID 2010); format: functional;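 note: cells exposed to compound for about 90 hours before reading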
[4] = biological target: T1, DNA repair protein RAD52 homolog (Homo sapiens, UniProt P43351); format: functional, biochemical
T1 sequence (P43351 whole entry): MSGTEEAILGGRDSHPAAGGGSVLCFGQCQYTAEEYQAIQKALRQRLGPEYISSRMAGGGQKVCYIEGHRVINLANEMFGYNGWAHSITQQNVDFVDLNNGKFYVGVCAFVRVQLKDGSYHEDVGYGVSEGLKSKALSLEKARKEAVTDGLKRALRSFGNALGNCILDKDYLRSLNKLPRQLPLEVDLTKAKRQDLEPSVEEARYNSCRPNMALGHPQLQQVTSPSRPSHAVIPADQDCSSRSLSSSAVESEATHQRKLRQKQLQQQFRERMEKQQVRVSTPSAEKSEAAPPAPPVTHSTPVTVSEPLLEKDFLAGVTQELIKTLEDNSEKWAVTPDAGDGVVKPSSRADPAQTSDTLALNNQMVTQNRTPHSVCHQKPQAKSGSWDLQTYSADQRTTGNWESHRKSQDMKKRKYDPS

[5] = biological target: T2, RNA-binding protein pos-1 (Caenorhabditis elegans, UniProt G5EF15); experiment: inhibitors of POS-1/mex-3 RNA binding, dose response, biochemical, fluorescence polarization (AID 1964);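 note: purified POS-1 fused to maltose binding protein made in E. coli; potency of compounds blocking POS-1 binding to fluorescent RNA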
T2 sequence (G5EF15 whole entry): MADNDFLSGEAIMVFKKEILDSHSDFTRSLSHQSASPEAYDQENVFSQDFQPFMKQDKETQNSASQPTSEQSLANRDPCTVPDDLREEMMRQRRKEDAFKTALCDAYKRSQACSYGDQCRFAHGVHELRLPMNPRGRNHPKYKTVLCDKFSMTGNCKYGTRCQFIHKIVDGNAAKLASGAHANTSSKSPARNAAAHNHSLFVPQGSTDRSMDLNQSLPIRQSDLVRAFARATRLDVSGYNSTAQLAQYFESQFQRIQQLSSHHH

[6] = biological target: T3, Zinc finger protein mex-5 (Caenorhabditis elegans, UniProt Q9XUB2); experiment: MEX-5/TCR-2 RNA interaction inhibitors, dose response, biochemical, C. elegans, fluorescence polarization (AID 1960)
T3 sequence (Q9XUB2 whole entry): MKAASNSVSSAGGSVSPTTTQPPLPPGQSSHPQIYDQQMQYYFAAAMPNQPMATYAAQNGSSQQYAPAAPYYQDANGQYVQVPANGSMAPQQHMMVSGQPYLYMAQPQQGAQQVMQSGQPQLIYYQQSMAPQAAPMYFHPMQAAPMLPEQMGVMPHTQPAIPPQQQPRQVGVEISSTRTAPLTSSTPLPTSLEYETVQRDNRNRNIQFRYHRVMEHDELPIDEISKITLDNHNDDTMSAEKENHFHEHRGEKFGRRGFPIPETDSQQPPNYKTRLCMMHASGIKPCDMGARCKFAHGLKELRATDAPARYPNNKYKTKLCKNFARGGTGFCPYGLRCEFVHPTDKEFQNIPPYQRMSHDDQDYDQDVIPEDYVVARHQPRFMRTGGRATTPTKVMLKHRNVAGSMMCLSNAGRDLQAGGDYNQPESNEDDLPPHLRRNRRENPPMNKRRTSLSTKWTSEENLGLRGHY

[7] = biological target: Glyceraldehyde-3-phosphate dehydrogenase (Homo sapiens, UniProt P04406)
[8] = biological target: T4, Heat shock factor protein 1 (Mus musculus, UniProt P38532); experiment: inhibition of MG132-induced HSE-luciferase signal, confirmation, cell-based, NIH3T3, luminescence, dose retest (AID 2382); format: functional;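 note: NIH3T3 fibroblasts with HSF1-driven luciferase reporter stressed by proteasome inhibitor MG132; luminescence from HSF1-driven luciferase expression after 8 hours of MG132 stress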
T4 sequence (P38532 whole entry): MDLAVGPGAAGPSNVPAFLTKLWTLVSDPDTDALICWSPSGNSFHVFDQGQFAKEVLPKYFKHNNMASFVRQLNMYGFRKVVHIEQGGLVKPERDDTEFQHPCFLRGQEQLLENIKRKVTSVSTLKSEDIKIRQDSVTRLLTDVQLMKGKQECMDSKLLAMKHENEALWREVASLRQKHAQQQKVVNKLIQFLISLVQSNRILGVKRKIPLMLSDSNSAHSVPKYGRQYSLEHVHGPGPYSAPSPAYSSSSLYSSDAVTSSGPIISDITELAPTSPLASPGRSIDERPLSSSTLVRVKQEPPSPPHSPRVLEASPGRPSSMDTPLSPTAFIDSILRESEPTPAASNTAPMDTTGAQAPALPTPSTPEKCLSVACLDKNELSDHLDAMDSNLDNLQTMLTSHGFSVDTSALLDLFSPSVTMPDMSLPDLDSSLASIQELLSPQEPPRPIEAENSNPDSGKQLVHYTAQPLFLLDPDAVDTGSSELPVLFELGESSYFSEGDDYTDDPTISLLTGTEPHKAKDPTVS

[9] = inhibitors of firefly luciferase expression or activity, dose response, H4 neuroglioma cells, luminescence (AID 1990); format: functional, cell-based
[10] = Luminescence Cell-Based Dose Response HTS to Identify Inhibitors of 5'UTR Stem-Loop Driven Prion Protein mRNA Translation in H4 Neuroglioblastoma Cells. [Related pubchem assays: 1827 (Project Summary), 1813 (Primary HTS)]; format: functional
[11] = inhibitors of SNCA 5'UTR-driven reporter translation, confirmation, H4 neuroglioma cells, luminescence (AID 1988); format: functional, cell-based
[12] = tested on: INS1; experiment: beta cell apoptosis inhibitors, cytokine rescue, dose response, luminescence, retest (AID 449756); format: functional, cell-based; conditions: Rattus norvegicus;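 note: cell death triggered by IL-1 beta plus TNF-alpha plus IFN-gamma mixture; protective hits raise ATP signal compared with cytokine alone wells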
[13] = Shn3 3'UTR reporter inhibitors, dose response, cell-based, Clone20 osteoblasts, firefly luciferase, cherry-picked (AID 624132); format: functional;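 note: firefly luciferase luminescence from reporter carrying the Shn3 3'UTR in osteoblasts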
[14] = HepG2 cell cytotoxicity, dose response, cytotoxicity control for Shn3 inhibitor project, CellTiter-Glo, cherry-picked (AID 624134); format: functional, cell-based
[15] = control 3'UTR Renilla luciferase suppression, dose response, counter-screen for Shn3 inhibitor project, cell-based, Clone20-Shn3RL, cherry-picked (AID 624133); format: functional
[16] = biological target: T5, Calpain-2 catalytic subunit (Sus scrofa, UniProt P43367); experiment: pig calpain II inhibitor potency, dose response, biochemical, fluorogenic peptide substrate (AID 1420); format: functional
T5 sequence (P43367 whole entry): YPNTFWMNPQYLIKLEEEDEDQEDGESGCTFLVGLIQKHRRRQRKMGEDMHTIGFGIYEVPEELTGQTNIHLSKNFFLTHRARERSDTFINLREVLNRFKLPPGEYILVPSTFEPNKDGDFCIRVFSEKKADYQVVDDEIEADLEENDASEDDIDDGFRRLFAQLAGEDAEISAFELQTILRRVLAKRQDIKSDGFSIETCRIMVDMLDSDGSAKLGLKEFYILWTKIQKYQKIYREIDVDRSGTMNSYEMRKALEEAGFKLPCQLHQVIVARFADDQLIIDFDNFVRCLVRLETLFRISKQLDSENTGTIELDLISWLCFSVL

[17] = biological target: T6, Ubiquitin-conjugating enzyme E2 N (Homo sapiens, UniProt P61088); format: functional;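 note: Dose-response confirmation in a TR-FRET assay detecting UBC13-driven polyubiquitin chain formation, inhibition measured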
T6 sequence (P61088 whole entry): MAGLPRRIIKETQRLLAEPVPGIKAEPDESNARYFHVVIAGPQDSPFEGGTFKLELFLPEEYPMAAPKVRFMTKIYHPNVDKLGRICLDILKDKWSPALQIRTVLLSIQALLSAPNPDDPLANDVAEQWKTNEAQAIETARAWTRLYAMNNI

[18] = P. falciparum 3D7-ScDHODH growth inhibitors, dose response, SYBR Green, dry powder samples (AID 1159570); format: functional, cell-based;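 note: parasite growth measured after 72 hours of compound exposure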
[19] = P. falciparum Dd2 growth inhibitors, dose response, SYBR Green, cherry-picked samples (AID 1159567); format: functional, cell-based
[20] = P. falciparum Dd2 growth inhibitors, dose response, SYBR Green, dry powder samples (AID 1159566); format: functional, cell-based;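 note: potency for growth inhibition with lower SYBR green DNA signal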
[21] = P. falciparum ATP4 D1247Y mutant growth inhibitors, dose response, NITD609-resistant line, SYBR Green, dry powder (AID 1159571); format: functional, cell-based;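 note: parasites synchronized at ring stage by sorbitol before testing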
[22] = biological target: Induced myeloid leukemia cell differentiation protein Mcl-1 (Homo sapiens, UniProt Q07820); format: functional
[23] = biological target: T7, Short transient receptor potential channel 4 (Mus musculus, UniProt Q9QUQ5); experiment: mouse TRPC4 channel activators, dose response, cell-based, HEK293 TRPC4/mu-opioid, Fluo-4 calcium (AID 434937); format: functional
T7 sequence (Q9QUQ5 whole entry): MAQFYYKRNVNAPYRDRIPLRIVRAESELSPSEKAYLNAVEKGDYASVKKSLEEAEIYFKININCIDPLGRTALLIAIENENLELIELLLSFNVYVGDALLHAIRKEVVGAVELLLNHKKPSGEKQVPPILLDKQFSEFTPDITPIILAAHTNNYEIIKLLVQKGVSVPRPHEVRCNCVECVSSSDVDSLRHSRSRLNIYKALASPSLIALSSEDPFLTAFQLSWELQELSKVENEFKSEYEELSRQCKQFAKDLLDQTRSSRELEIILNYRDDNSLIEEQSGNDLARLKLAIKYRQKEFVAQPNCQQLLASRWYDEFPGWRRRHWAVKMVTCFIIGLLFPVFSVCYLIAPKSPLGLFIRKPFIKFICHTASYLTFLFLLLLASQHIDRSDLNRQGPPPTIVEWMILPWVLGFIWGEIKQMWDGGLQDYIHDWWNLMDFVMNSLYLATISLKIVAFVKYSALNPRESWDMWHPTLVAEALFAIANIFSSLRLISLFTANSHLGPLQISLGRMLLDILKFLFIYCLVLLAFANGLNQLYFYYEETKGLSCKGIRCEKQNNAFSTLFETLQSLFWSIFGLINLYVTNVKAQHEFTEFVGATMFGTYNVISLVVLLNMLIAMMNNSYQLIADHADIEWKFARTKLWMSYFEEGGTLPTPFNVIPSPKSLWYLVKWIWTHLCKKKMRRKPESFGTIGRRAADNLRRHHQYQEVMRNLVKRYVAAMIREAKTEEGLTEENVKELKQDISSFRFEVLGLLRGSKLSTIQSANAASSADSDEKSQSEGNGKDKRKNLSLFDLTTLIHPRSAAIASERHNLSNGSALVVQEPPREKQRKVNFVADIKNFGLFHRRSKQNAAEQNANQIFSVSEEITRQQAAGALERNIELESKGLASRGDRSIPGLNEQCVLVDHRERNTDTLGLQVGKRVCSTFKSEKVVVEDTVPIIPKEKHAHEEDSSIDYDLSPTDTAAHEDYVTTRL

Sequence of Glyceraldehyde-3-phosphate dehydrogenase (P04406 whole entry): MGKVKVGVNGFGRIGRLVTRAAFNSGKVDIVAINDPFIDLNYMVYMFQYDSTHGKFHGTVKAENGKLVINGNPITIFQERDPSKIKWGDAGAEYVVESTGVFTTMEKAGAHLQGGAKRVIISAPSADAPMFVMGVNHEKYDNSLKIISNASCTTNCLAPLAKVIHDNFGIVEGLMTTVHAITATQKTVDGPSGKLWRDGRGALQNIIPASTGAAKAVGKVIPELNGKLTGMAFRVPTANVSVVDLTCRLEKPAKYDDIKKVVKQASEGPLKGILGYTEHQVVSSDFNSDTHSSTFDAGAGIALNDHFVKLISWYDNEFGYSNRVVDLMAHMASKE
Sequence of Induced myeloid leukemia cell differentiation protein Mcl-1 (Q07820 whole entry): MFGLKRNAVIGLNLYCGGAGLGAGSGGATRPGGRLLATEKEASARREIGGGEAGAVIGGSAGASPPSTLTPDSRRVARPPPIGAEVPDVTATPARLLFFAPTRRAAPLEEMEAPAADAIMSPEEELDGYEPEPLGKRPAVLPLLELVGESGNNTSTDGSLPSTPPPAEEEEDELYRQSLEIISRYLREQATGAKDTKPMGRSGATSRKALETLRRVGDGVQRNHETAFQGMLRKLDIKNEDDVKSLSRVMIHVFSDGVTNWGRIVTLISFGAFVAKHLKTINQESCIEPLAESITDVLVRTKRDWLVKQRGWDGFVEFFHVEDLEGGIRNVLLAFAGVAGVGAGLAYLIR

Fc1ccc(CCNCc2ccccc2Cl)cc1
EC50 [1]: > 50 µM (active)

CN1CCN(CCCNC(=O)c2ccc(/C=C3/Sc4ccccc4N(Cc4cccc(Cl)c4)C3=O)cc2)CC1
EC50 [2]: 0.11 µM (active) | EC50 [3]: 5.71 µM (active) | AC50 [4]: 14 µM (active)

CCN1C(=O)/C(=C/c2c(C)nn(C)c2C)SC1=S
EC50 [5]: 254 µM (inconclusive) | EC50 [6]: 189 µM (inconclusive)

COc1ccc(NC(=O)C(Cc2ccccc2)n2cccc2)cc1 (configuration not stated)
EC50 [1]: > 50 µM (active)

COc1cccc(N2CCN(C3=C(Cl)C(=O)N(c4cccc(C)c4)C3=O)CC2)c1
IC50 [7]: > 50 µM (inconclusive)

O=C1C(Cl)=C(N2CCN(C/C=C/c3ccccc3)CC2)C(=O)N1c1cccc(C(F)(F)F)c1
IC50 [7]: > 50 µM (inconclusive)

Cc1ccc(Cn2c(=N)c(C(=O)NCCN3CCOCC3)cc3c(=O)n4ccccc4nc32)cc1
EC50 [1]: > 50 µM (active)

CNC(=O)NC(=O)COC(=O)c1ccc(-n2c(C)ccc2C)cc1
EC50 [5]: > 300 µM (not active) | EC50 [6]: > 300 µM (not active) | EC50 [8]: > 195 µM (not active)

CN1CCN(CC(O)COc2ccc(C34CC5CC(CC(C5)C3)C4)cc2)CC1 (configuration not stated)
AC50 [4]: 10.5 µM (active)

COc1ccc(CNCCc2c(C)[nH]c3ccc(OC(F)(F)F)cc23)c(OC)c1
EC50 [9]: 17.7 µM (active) | EC50 [10]: > 120 µM (not active) | EC50 [11]: > 120 µM (not active) | EC50 [2]: 0.703 µM (active) | EC50 [3]: > 60 µM (not active) | AC50 [12]: 4.68 µM (active) | AC50 [13]: 0.963 µM (active) | AC50 [14]: 9.13 µM (active) | AC50 [15]: 8.45 µM (active)

FC(F)(F)C1CC(c2cccs2)Nc2ncnn21 (configuration not stated)
IC50 [16]: 0.904 µM (not active)

CC1CCc2c(sc3c2C2=NS(=O)(=O)CCN2C=N3)C1 (configuration not stated)
IC50 [16]: 9.53 µM (not active)

O=C1C(Cl)=C(N2CCN(CCO)CC2)C(=O)N1c1ccc(Cl)nc1
IC50 [7]: > 50 µM (inconclusive)

Nc1nc2ccccc2cc1-c1cccs1
EC50 [1]: > 50 µM (active)

Cn1c(=O)cc(SCC(=O)N2CCN(C3CCCCC3)CC2)c2ccccc21
EC50 [1]: > 50 µM (active) | IC50 [17]: > 20 µM (inactive)

CCOC(=O)C1(CC2CCCCO2)CCN(C(=O)Nc2ccc(C)c(C)c2)CC1 (configuration not stated)
IC50 [16]: > 50 µM (not active)

COc1ccc(C#Cc2cnc3c(c2)C(=O)N([C@H](C)CO)C[C@H](C)[C@H](CN(C)S(=O)(=O)c2cccc(F)c2)O3)cc1OC
AC50 [18]: 1.8 µM (active) | AC50 [19]: 1.38 µM (active) | AC50 [20]: 0.774 µM (active) | AC50 [21]: 1.17 µM (active)

CN1Cc2c(c(C#N)c(N)n(C)c2=S)CC1(C)C
EC50 [5]: 35.4 µM (active) | EC50 [6]: 29.1 µM (active)

CCCCN(CC)CC/N=c1/c(N2CCN(C(=O)OCC)CC2)c(O)c1=O
IC50 [22]: 0.433 µM (active) | EC50 [23]: 1.68 µM (active)

CC(C)(C)[S@+]([O-])N1Cc2cc(C(=O)N[C@@H]3CCN(Cc4ccccc4)C3)nc(-c3cccc(-c4cccnc4)c3)c2[C@@H]1CCO
AC50 [18]: 2.62 µM (active) | AC50 [19]: 1.93 µM (active) | AC50 [20]: 1.99 µM (active) | AC50 [21]: 1.98 µM (active)
